We go through 5 compounds from paper PMC6843521, “Discrimination of Oviposition Deterrent Volatile β-Ionone by Odorant-Binding Proteins 1 and 4 in the Whitefly Bemisia tabaci” (Biomolecules, 2019).

Structures can show the parent of a compound that is named as a salt. Where two headings read alike, the source gives them in different places.

Experiment [1] concerns the target T1, OBP1 (Bemisia tabaci, UniProt A0A1S6JPY5). Put plainly: Fluorescence competitive binding assay, recombinant OBP1 with 1-NPN probe. As to the method: (§1) N-Phenyl-1-naphthylamine (1-NPN), 4,4′-Dianilino-1,1′-binaphthyl-5,5′-disulfonic acid dipotassium salt (bis-ANS), β-ionone, α-ionone, and […] were diluted with chromatographic-grade methanol to a final concentration of 1 mmol·L^−1, and the protein was diluted with 50 mM Tris-HCl (pH 7.4) to a final concentration of 2 μmol·L^−1. When 1-NPN was used as fluorescent probe, the excitation wavelength of the fluorescence spectrophotometer was set to 337 nm, and the scanning range was 350−500 nm. When bis-ANS was used as fluorescent probe, the excitation wavelength of the fluorescence spectrophotometer was set to 295 nm, and the scanning range was 300−550 nm. The fluorescent probe was gradually added to the protein-containing quartz tube to make it close to saturation. According to the Scatchard equation [35], the binding dissociation constants K1-NPN of OBP1 and the fluorescent probe 1-NPN and Kbis-ANS of OBP4 and fluorescent probe bis-ANS were determined. Protein and fluorescent probes were added to the quartz dish (the final concentration was 2 μM), and ionone was gradually added to determine the binding ability of the protein and ionone, and the dissociation constant Ki was calculated using the formula: Ki = [IC50]/(1 + [L]/KL), where [IC50] is the concentration of the ligand at which the fluorescence intensity is reduced by half, [L] is the concentration of the free fluorescent probe, and KL is the binding dissociation constant of the protein and the fluorescent probe. N-Phenyl-1-naphthylamine (1-NPN, Chemical Abstract Service (CAS): 90-30-2), 4,4’-dianilino-1,1’-binaphthyl-5,5’-disulfonic acid dipotassium salt (bis-ANS, CAS: 65664-81-5), methanol (CAS: 67-56-1), α-ionone (CAS: 127-41-3), β-ionone (CAS: 14901-07-6), and dihydro-β-ionone (CAS: 17283-81-7) were purchased from Sigma-Aldrich (St. Louis, MO, USA).

Experiment [2] concerns the target T2, OBP4 (Bemisia tabaci, UniProt A0A1S6JPY9). Briefly: Fluorescence competitive binding, OBP4 with 1-NPN as probe (Figure S2D). The conditions noted are these: OBP4, 1-NPN as probe. As to the method: as §1
The target in experiment [3] is T2, OBP4. Put plainly: Fluorescence competitive binding assay, recombinant OBP4 with bis-ANS probe. As for the experimental part:
as §1

Experiment [4] deals with T1, OBP1. Put plainly: Fluorescence competitive binding, OBP1 with bis-ANS as probe (Figure S2C). As for the experimental part:
as §1

In the next experiment the target is OBP8. Also noted: method as in doi:10.1016/j.cropro.2009.10.001, PMID 19458158. The conditions noted are these: B. tabaci OBP8; ref [9],[31]; cited from earlier work.
Another experiment concerns B. tabaci. The conditions noted are these: cited from earlier work.
A further experiment deals with flea beetle. Also noted: method as in Caceres et al. [10]. The conditions noted are these: ref Caceres et al. [10]; cited from earlier work.
In the next experiment the test system is spider mite. Also noted: method as in Caceres et al. [10]. The conditions noted are these: ref Caceres et al. [10]; cited from earlier work.

T2 sequence (A0A1S6JPY9 entry or part of it): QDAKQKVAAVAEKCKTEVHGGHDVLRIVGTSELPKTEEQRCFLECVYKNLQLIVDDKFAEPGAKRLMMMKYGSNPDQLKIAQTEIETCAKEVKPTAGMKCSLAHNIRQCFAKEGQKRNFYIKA
T1 sequence (A0A1S6JPY5 entry or part of it): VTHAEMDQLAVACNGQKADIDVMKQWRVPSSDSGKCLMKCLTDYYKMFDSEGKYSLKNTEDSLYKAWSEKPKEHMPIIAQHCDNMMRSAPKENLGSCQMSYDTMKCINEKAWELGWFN

One may read the IC50 as the concentration at which inhibition is half-maximal. On to `CC(=O)CCC1=C(C)CCCC1(C)C` [dihydro-β-ionone], for which the “binding ability (words)” value at OBP1 [1] (OBP1, 1-NPN probe) was “hardly displaced the fluorescent probe”; on OBP4 [2], “did not”; at OBP4 [3] (OBP4, bis-ANS probe), “hardly displaced the fluorescent probe”; at OBP1 [4], “did not”. Besides, the IC50 at OBP1 [1] (OBP1, 1-NPN probe, dash symbol of Table S2, read-out: IC50) was greater than 50 µM; at OBP4 [3] (OBP4, bis-ANS probe, dash symbol of Table S2, read-out: IC50), greater than 50 µM.

`c1ccc(Nc2cccc3ccccc23)cc1` [1-NPN, N-Phenyl-1-naphthylamine, reference compound]: the Kd at OBP1 [1] was determined as 3.38 µM.

By Ki is commonly meant the equilibrium dissociation constant of an inhibitor or competing ligand from its target. In the case of `CC(=O)/C=C/C1=C(C)CCCC1(C)C` [β-ionone], the results for the half-maximal inhibitory concentration (IC50) at OBP1 [1] and on OBP4 [3] were 7.16 µM and 5.14 µM, respectively. On OBP8, the inhibitory constant (Ki) was 13.3 µM. For the same compound, the “binding ability (words)” value on OBP4 [2] and on OBP1 [4] was “bonded well” in each case. In addition, the “B. tabaci egg production” value with B. tabaci (concentrations of 0.1 ng/μL and 0.5 ng/μL, ref Cáceres et al. [10]) is recorded as “significantly inhibit”. Moreover, the “oviposition deterrence to whiteflies” value with B. tabaci (ref Caceres et al. [10]) was “significant oviposition deterrence”. For the same compound, the repellent effect entry in the experiment with flea beetle and in the experiment with spider mite was “strong repellent effect” each time.

In the case of `O=S(=O)(O)c1cccc2c(-c3ccc(Nc4ccccc4)c4c(S(=O)(=O)O)cccc34)ccc(Nc3ccccc3)c12` [bis-ANS, 4,4′-Dianilino-1,1′-binaphthyl-5,5′-disulfonic acid dipotassium salt, reference compound], at OBP4 [3] (OBP4 2 μmol·L^−1, 50 mM Tris-HCl pH 7.4, excitation 295 nm, read-out: dissociation constant of fluorescent probe (Scatchard)), the Kd stood at 2.68 µM.

Regarding `CC(=O)/C=C/C1C(C)=CCCC1(C)C` (stereo not drawn) [α-ionone], the IC50 on OBP1 [1] worked out at 40.1 µM; on OBP4 [3], 21.1 µM. Also, the “binding ability (words)” value is “weak binding” at OBP1 [1] (OBP1, 1-NPN probe); “weaker binding” on OBP1 [1] (OBP1, 1-NPN probe, listed as α-Ionone); “did not” at OBP4 [2]; “weak binding” on OBP4 [3] (OBP4, bis-ANS probe); “weaker binding” at OBP4 [3] (OBP4, bis-ANS probe, listed as α-Ionone); “did not” at OBP1 [4]. In addition, in the experiment on B. tabaci (doses of 0.05 ng/μL and 0.5 ng/μL, ref [10]), the “ovipositioning repellent to whitefly” value was “weak ovipositioning repellent”.
